From patent publication US7157494B2, “Dimeric compounds and their use as anti-viral agents” (priority 2001, dated 2007)
≈ marks a conversion by molar mass, not a printed value. Where “and” joins values, the source holds several entries; their conditions need not be identical. Equal values may be shown once.

Experiments:
[1] = tested on: A/WSN/33 BVLV09 (H1N1); assay: Plaque reduction assay (PRA) in MDCK cells; type: cell-based, influenza A H1N1
Protocol: (§1) Madin Darby Canine Kidney (MDCK) cells are seeded into six well tissue culture plates and grown to confluency via standard methods. Influenza viruses are diluted in a minimal volume of phosphate buffered saline supplemented with 0.2% bovine serum albumin to yield an estimated titre of 50–100 plaque forming units (pfu) per well. After adsorption to the MDCK cells for one hour at 37° C. in a 5% CO2 atmosphere the viral inocula is aspirated and replaced with viral growth media (minimal Eagle's media supplemented with BSA, trypsin and insulin/transferrin/selenium at optimal concentrations) containing sufficient agar or agarose (generally 1–2%) to cause the media to gel at room temperature and at 37° C. in a 5% CO2 atmosphere until plaques develop (generally 2–4 days). Plaques can be visualised with a suitable stain (e.g. 0.4% crystal violet in formal saline) before counting.

[2] = tested on: A/Bayern/7/95 BVL006 (H1N1); assay: Plaque reduction assay (PRA) in MDCK cells; type: cell-based, influenza A H1N1
Protocol: as §1

[3] = tested on: A/New Caledonia/20/99 BVLV008 (H1N1); assay: Plaque reduction assay (PRA) in MDCK cells; type: cell-based, influenza A H1N1
Protocol: as §1

[4] = tested on: A/Panama/2007/99 BVLV008 (H3N2); assay: Plaque reduction assay (PRA) in MDCK cells; type: cell-based, influenza A H3N2
Protocol: as §1

[5] = tested on: A/Victoria/3/75 BVLV017 (H3N2); assay: Plaque reduction assay (PRA) in MDCK cells; type: cell-based, influenza A H3N2
Protocol: as §1

[6] = tested on: A/Sydney/5/97 BVLV015 (H3N2); assay: Plaque reduction assay (PRA) in MDCK cells; type: cell-based, influenza A H3N2
Protocol: as §1

[7] = Rat lung retention assay (intra-tracheal dosing, compound level in lung tissue); type: in vivo; conditions: for [cmpd] / Mean [cmpd]: rat lung tissue; for [cmpd]: individual animal; for concentration at 48 h / concentration at 168 h: Mean [cmpd] ng/g
Protocol: Rodents are anaesthetised and dosed with compound of interest by the intra-tracheal route at a dose volume of 0.8 ml/kg. The rodent is then held in the vertical position until full recovery is achieved. […] Any analytical method suitable for detection of this type of compound may be used. The time at which levels of compound fall below the sensitivity of the analytical techniques identified will determine the residency time of the compound in lung tissue.
Please note that all experiments included a co-dosed internal standard, namely compound 3 of International Patent Publication No. WO 02/20514, to permit comparison. The data are expressed as a ratio with respect to this compound, the structure of which is shown below.

[8] = tested on: B/Hong Kong/5/72 BVLV012; assay: Plaque reduction assay (PRA) in MDCK cells; type: cell-based, influenza B
Protocol: as §1

[9] = tested on: B/Yamanashi/166/98 BVLV007; assay: Plaque reduction assay (PRA) in MDCK cells; type: cell-based, influenza B
Protocol: as §1

[10] = tested on: Influenza B/Harbin/7/95; type: cell-based; conditions: concentration that inhibited CPE by 50%; MDCK cells, up to 72 hours, MTT
[11] = tested on: Influenza A/Sydney/5/97; type: cell-based; conditions: concentration that inhibited CPE by 50%; MDCK cells, up to 72 hours, MTT

In the case of `CC(=O)N[C@H]1[C@H]([C@H](OC(=O)NCCCNC(=O)c2ccc(C(=O)NCCCNC(=O)O[C@@H]([C@@H]3OC(C(=O)O)=C[C@H](NC(=N)N)[C@H]3NC(C)=O)[C@H](O)CO)cc2)[C@H](O)CO)OC(C(=O)O)=C[C@@H]1NC(=N)N` [Compound 5], the “EC50 PRA A/WSN” value [1] is reported as 0.02 ng/mL (≈ 0.0201 nM), the “EC50 PRA A/Bay” value [2] is reported as 0.009 ng/mL (≈ 0.00905 nM) and the “EC50 PRA A/New” value [3] is reported as 0.06 ng/mL (≈ 0.0603 nM). The “EC50 PRA A/Pan” value [4] was 0.03 ng/mL (≈ 0.0302 nM), the “EC50 PRA A/Vic” value [5] was 0.003 ng/mL (≈ 0.00302 nM) and the “EC50 PRA A/Syd” value [6] was 0.05 ng/mL (≈ 0.0503 nM). The “[cmpd]” value ([7]; 48 hrs, 0.1 mg/kg intra-tracheal, 0.1 mg/kg) was 1325 ng/g and 750 ng/g and 778 ng/g, the “Mean [cmpd]” value ([7]; 48 hrs, 0.1 mg/kg intra-tracheal) was 951 ng/g and the “[cmpd]” value ([7]; 168 hrs, 0.1 mg/kg intra-tracheal, 0.1 mg/kg) was 272 ng/g and 636 ng/g and 300 ng/g. For the same compound, the “Mean [cmpd]” value ([7]; 168 hrs, 0.1 mg/kg intra-tracheal) was 403 ng/g, the “Ratio Mean [lung] [cmpd]/PCT AU01/01128 compound 3” value (from here on “Ratio Mean [lung]”) ([7]; rat lung, 48 hrs, 0.1 mg/kg intra-tracheal) was 0.68 and the “Ratio Mean [lung]” value ([7]; rat lung, 168 hrs, 0.1 mg/kg intra-tracheal) was 0.41. For the same compound, the “EC50 PRA B/HongK” value [8] was 0.316 ng/mL (≈ 0.318 nM) and the “EC50 PRA B/Yam” value [9] was 0.022 ng/mL (≈ 0.0221 nM).

For `CC(=O)N[C@H]1[C@H]([C@H](OC(=O)NCCCNC(=O)Cc2ccc(CC(=O)NCCCNC(=O)O[C@@H]([C@@H]3OC(C(=O)O)=C[C@H](NC(=N)N)[C@H]3NC(C)=O)[C@H](O)CO)cc2)[C@H](O)CO)OC(C(=O)O)=C[C@@H]1NC(=N)N` [Compound 13], the “ID50 B/Harbin/7/95” value [10] was 0.3 ng/mL (≈ 0.293 nM) and the “ID50 A/Sydney/5/97” value [11] was 0.1 ng/mL (≈ 0.0977 nM).

In the case of `CC(=O)N[C@H]1[C@H]([C@H](OC(=O)NCCCCNC(=O)c2cccc(C(=O)NCCCCNC(=O)O[C@@H]([C@@H]3OC(C(=O)O)=C[C@H](NC(=N)N)[C@H]3NC(C)=O)[C@H](O)CO)c2)[C@H](O)CO)OC(C(=O)O)=C[C@@H]1NC(=N)N` [Compound 1], the “Ratio Mean [lung]” value ([7]; rat, in vivo, 0.1 mg/kg, 48 h) is reported as 0.44, the “Ratio Mean [lung]” value ([7]; rat, in vivo, 0.1 mg/kg, 168 h) is reported as 0.41 and the concentration at 48 h ([7]; rat, in vivo, 0.1 mg/kg) is reported as 1280 ng/g. The concentration at 168 h ([7]; rat, in vivo, 0.1 mg/kg) was 372 ng/g.

For `CC(=O)N[C@H]1[C@H]([C@H](OC(=O)NCCCCCCNC(=O)c2ccccc2C(=O)NCCCCCCNC(=O)O[C@@H]([C@@H]2OC(C(=O)O)=C[C@H](NC(=N)N)[C@H]2NC(C)=O)[C@H](O)CO)[C@H](O)CO)OC(C(=O)O)=C[C@@H]1NC(=N)N` [Compound 7], the “ID50 B/Harbin/7/95” value [10] was 0.8 ng/mL (≈ 0.741 nM) and the “ID50 A/Sydney/5/97” value [11] was 0.7 ng/mL (≈ 0.649 nM).

With `CC(=O)N[C@H]1[C@H]([C@H](OC(=O)NCCCNC(=O)Cc2ccccc2CC(=O)NCCCNC(=O)O[C@@H]([C@@H]2OC(C(=O)O)=C[C@H](NC(=N)N)[C@H]2NC(C)=O)[C@H](O)CO)[C@H](O)CO)OC(C(=O)O)=C[C@@H]1NC(=N)N` [Compound 14] the “ID50 B/Harbin/7/95” value [10] was 0.3 ng/mL (≈ 0.293 nM) and the “ID50 A/Sydney/5/97” value [11] was 0.2 ng/mL (≈ 0.195 nM).

With `CC(=O)N[C@H]1[C@H]([C@H](OC(=O)NCCCCNS(=O)(=O)c2cccc(S(=O)(=O)NCCCCNC(=O)O[C@@H]([C@@H]3OC(C(=O)O)=C[C@H](NC(=N)N)[C@H]3NC(C)=O)[C@H](O)CO)c2)[C@H](O)CO)OC(C(=O)O)=C[C@@H]1NC(=N)N` [Compound 3] the “ID50 B/Harbin/7/95” value [10] was 0.07 ng/mL (≈ 0.0639 nM), the “ID50 A/Sydney/5/97” value [11] was 0.1 ng/mL (≈ 0.0913 nM) and the “Ratio Mean [lung]” value ([7]; rat, in vivo, 0.1 mg/kg, 48 h) was 0.49. For the same compound, the “Ratio Mean [lung]” value ([7]; rat, in vivo, 0.1 mg/kg, 168 h) was 0.36, the concentration at 48 h ([7]; rat, in vivo, 0.1 mg/kg) was 1410 ng/g and the concentration at 168 h ([7]; rat, in vivo, 0.1 mg/kg) was 329 ng/g.

In the case of `CC(=O)N[C@@H]1[C@@H](NC(=N)N)C=C(C(=O)O)O[C@H]1C(OC(=O)NCCC(=O)NCc1ccc(CNC(=O)CCNC(=O)O[C@@H]([C@@H]2OC(C(=O)O)=C[C@H](NC(=N)N)[C@H]2NC(C)=O)[C@H](O)CO)cc1)[C@H](O)CO` (stereo partly shown) [Compound 4], the “ID50 B/Harbin/7/95” value [10] is reported as 0.4 ng/mL (≈ 0.402 nM) and the “ID50 A/Sydney/5/97” value [11] is reported as 0.3 ng/mL (≈ 0.302 nM).

In the case of `CCOC(=O)C1=C[C@@H](OC(CC)CC)[C@H](NC(C)=O)[C@@H](N)C1` [Oseltamivir], the EC50 ([3]; Influenza A virus, H1N1, MDCK, reduces plaque numbers by 50%, A/New Caledonia/20/99 (H1N1)) is reported as 0.23 ng/mL (≈ 0.736 nM), the EC50 ([4]; Influenza A virus, H3N2, MDCK, reduces plaque numbers by 50%, A/Panama/2007/99 (H3N2), read-out: EC50 PRA A/Pan) is reported as 0.3 ng/mL (≈ 0.96 nM) and the EC50 ([5]; Influenza A virus, MDCK, reduces plaque numbers by 50%, A/Victoria/3/75 (H3N2), read-out: EC50 PRA A/Vic) is reported as 0.11 ng/mL (≈ 0.352 nM). For the same compound, the EC50 ([8]; Influenza B virus, MDCK, read-out: EC50 PRA B/HongK) was 32 ng/mL (≈ 102 nM) and the EC50 ([9]; Influenza B virus, MDCK, read-out: EC50 PRA B/Yam, reduces plaque numbers by 50%, B/Yamanashi/166/98) was 0.7 ng/mL (≈ 2.24 nM).
